In brackets after ≈: the same amount, converted by molar mass.

Assay [1] concerns Acinetobacter calcoaceticus. The assay can be described thus: in vitro antimicrobial spectrum, agar plate dilution (MIC). The assay is classed as cell-based. Particulars: strain STFD 79-17, 18 hours, 35° C., Mueller-Hinton agar. The procedure:
(§1) The in vitro antimicrobial spectrum of LL-D42067β was determined by the agar plate dilution method with Mueller-Hinton agar and an inoculum of each test organism of approximately 10^4 colony forming units delivered by the Steers replicating device. The minimal inhibitory concentration (MIC) in mcg/ml was defined as the lowest concentration of LL-D42067β that inhibited visible growth after 18 hours incubation at 35° C.

The test system of the next assay is Candida albicans. The description is as above. In kind it is cell-based. Particulars: strain CA 300, 18 hours, 35° C., Mueller-Hinton agar. Here is the method:
as §1

In a further assay the test system is Escherichia coli. Described as above. Particulars: 35° C., Mueller-Hinton agar. The assay is classed as cell-based. The procedure:
as §1

Another assay relates to Mycobacterium smegmatis. The description is as above. The assay is classed as cell-based. Particulars: Mycolicibacterium smegmatis, ATCC607; strain ATCC 607; 18 hours, 35° C., Mueller-Hinton agar. The procedure: as §1
A further assay relates to Saccharomyces cerevisiae. The assay is described as above. The assay is classed as cell-based. Particulars: strain Y 15, 18 hours, 35° C., Mueller-Hinton agar. Here is the method:
as §1

In the next assay the test system is Staphylococcus aureus. Described as above. Particulars: Mueller-Hinton agar. The assay is classed as cell-based. Here is the method:
as §1

Assay [2] concerns Staphylococcus epidermidis. The description is as above. In kind it is cell-based. Particulars: ATCC12228, strain ATCC 12228, 18 hours, 35° C., Mueller-Hinton agar. Here is the method: as §1
Another assay deals with Streptococcus mutans. Described as above. In kind it is cell-based. Particulars: 35° C., Mueller-Hinton agar. The procedure:
as §1

Another assay deals with gram-positive bacteria. The assay can be described thus: in vitro antimicrobial spectrum, summary. Particulars: summary of Table VI. In kind it is cell-based. The procedure: as §1
The next assay relates to yeasts. The assay is described as follows: in vitro antimicrobial spectrum, summary. In kind it is cell-based. Particulars: summary of Table VI. The procedure:
as §1

For assay [3] the following is noted: poultry; subject of a copending application; cited from earlier work.

Regarding `COc1c2c(c(O)c3c(=O)c4c(oc13)[C@@H](O)CC[C@@H]4O)-c1c3c(c4cc(C)[nH]c(=O)c4c1O)OCO[C@H]3C2` (relative stereo) [LL-D42067β], the MIC in [1] is 512 µg/mL (≈ 982 µM); against Candida albicans, 512 µg/mL (≈ 982 µM); against Escherichia coli (ATCC25922, strain ATCC 25922, 18 hours), 512 µg/mL (≈ 982 µM); in the assay with Escherichia coli (strain No. 311, 18 hours), 512 µg/mL (≈ 982 µM); against Mycobacterium smegmatis, 512 µg/mL (≈ 982 µM); with Saccharomyces cerevisiae, 512 µg/mL (≈ 982 µM). Moreover, the MIC turned out to be 0.12 µg/mL (≈ 0.23 µM) with Staphylococcus aureus (18 h, strain LL No. 45, 35° C.); 0.25 µg/mL (≈ 0.479 µM) with Staphylococcus aureus (ATCC25923, 18 h, strain ATCC 25923, 35° C.); 0.25 µg/mL (≈ 0.479 µM) in assay [2]; 0.25 µg/mL (≈ 0.479 µM) against Streptococcus mutans (ATCC27352, strain ATCC 27352-1, 18 hours); 0.25 µg/mL (≈ 0.479 µM) against Streptococcus mutans (strain BHI (b), 18 hours). In the assay on gram-positive bacteria, the “antibacterial activity (in words)” value was “active”. Further, in the assay with yeasts, the “activity against yeasts (in words)” value is on record as “moderately active”. Further, the “anticoccidial effect (in words)” value in assay [3] is given as “effective”.

Broadly, the MIC is the lowest concentration that inhibits growth of the organism.

Source of the values: patent US4578468A, “Antibiotic LL-D42067β” (American Cyanamid Company, priority 1984, dated 1986).
